Measured values as given in patent US11891350B2, “Compounds for use in the treatment or prophylaxis of pain, inflammation and/or autoimmunity” (NOVAREMED LTD., priority 2019, dated 2024).
Read-outs that look alike come from different tables or passages of the source. Each block holds one compound with its values, some of them ahead of it.

Columns and labels:
[1] = Bioavailability and pharmacokinetics of polymorphs 1 and 2 after single oral dose, cross-over, in dogs; type: in vivo, male Beagle dog; conditions: for LS geometric mean Cmax: corrected to a 60.0-mg dose; for adverse reactions to the oral administration: single oral dose 60 mg/kg
Procedure: This study was designed to obtain blood plasma samples to enable the comparison of the bioavailability and pharmacokinetics of two different polymorphs 1 and 2 following single-dose oral administration to six dogs. A cross-over design was used with three dogs treated according to sequence 1 (polymorph 2 after 1) and three dogs according to sequence 2 (polymorph 1 after 2) with a one-week washout period between treatments.
Each polymorph was prepared as a suspension in a vehicle of 0.5% w/v HPMC K15M/0.5% w/v Tween 80 in sterile water.
Six male Beagle dogs (Tattoo numbers: 4986, 0964, 3611, 2380, 5002 and 1122 on-study animal numbers: 001 M, 002M, 003M, 004M, 005M and 006M, respectively) bodyweight 9.5-11.5 kg, aged 2-7 years at dosing, currently held as part of a colony of animals (Colony number: 190431) were used on this study. Dogs were originally obtained from Marshall Farms USA Inc. (NY, USA) or Envigo RMS, and were bred for use in scientific procedures. During pre-trial and on-study periods, the animals were group-housed in caging appropriate to the species. Prior to acceptance for use on study, animals were subject to a veterinary examination and the results found to be satisfactory. Holding and study areas had automatic control of light cycles and temperature. Light hours were 0700-1900 h. Ranges of temperature and humidity measured during the study were 17.0-21.8° C. and 23.4-83.07%, respectively. All animals were weighed prior to each dose administration and the bodyweights recorded. With the exception of a period of fasting from overnight predose until 4 hours post dose, a daily allowance of 200-300 g of standard laboratory diet of known formulation (SDS D3 (E) SQC) was available. Mains quality tap water was available ad libitum.
The formulation was always prepared on the morning of dose administration. Each polymorph was prepared as a suspension at a concentration of 12 mg/mL in a vehicle of 0.5% w/v HPMC K15M/0.5% w/v Tween 80 in sterile water for injection. The required volume of vehicle was added to an appropriate formulation container.
Each group of 3 male dogs, received a single oral dose administration of a polymorph at a target dose level of 60 mg/kg. Following a wash out period of 1 week each group of 3 male dogs received the alternative polymorph.
For each group, whole blood samples (ca 1.0 mL) were collected from the jugular veins in to NaF/EDTA tubes at the following time points:
Times given above were target times which were adhered to as closely as possible. Actual times of sample collection (and of dosing) were recorded (Table 2) and used in the evaluation of pharmacokinetic parameters. Immediately following collection, blood samples were placed on wet ice. As soon as practically possible the blood samples were centrifuged (+4° C., 1500 g, 10 min). The resulting plasma was divided into two aliquots (vial A: 100 μl plasma, vial B: remaining volume) and stored in appropriately labelled polypropylene tubes in a freezer set to maintain a temperature of −80° C. until shipment. All plasma samples, remaining dose formulation and dose aliquots were stored in a freezer set to maintain a temperature of −80° C. until shipment.
Pharmacokinetic (PK) parameters were estimated using Phoenix pharmacokinetic software using a non-compartmental approach consistent with the oral route of administration. All parameters were generated from polymorph 1 and 2 individual concentrations in plasma. Parameters were estimated using nominal sampling times relative to the start of each dose administration within an allowable deviation range (±10%). Predose samples below the limit of quantification (0.5 ng/mL) were assumed to be 0 for the PK analysis.
The area under the polymorph 1 and 2 plasma concentration versus time curve (AUC) was calculated using the linear trapezoidal method with linear interpolation. […]

BLK tyrosine kinase = BLK tyrosine kinase (Homo sapiens, UniProt P51451); assay: Effect on BLK tyrosine kinase activity; type: biochemical
LynB tyrosine kinase = LynB tyrosine kinase (Homo sapiens, UniProt P07948); assay: Effect on LynB tyrosine kinase activity; type: biochemical
LynA tyrosine kinase = LynA tyrosine kinase (Homo sapiens, UniProt P07948); assay: Effect on LynA tyrosine kinase activity; type: biochemical
[2] = Gravimetric Vapour Sorption (GVS); type: physicochemical; conditions: for change of polymorphic form on GVS cycling: hysteresis between cycles / XRPD after the cycles; for weight gain to 80% RH (GVS): first adsorption cycle
Procedure: Gravimetric Vapour Sorption (GVS)
Approximately 10 mg of sample was placed into a wire-mesh vapour sorption balance pan and loaded into an ‘IgaSorp’ vapour sorption balance (Hiden Analytical Instruments). The sample was then dried by maintaining a 0% humidity environment until no further weight change was recorded. Subsequently, the sample was subjected to a ramping profile from 0-90% RH at 10% RH increments, maintaining the sample at each step until equilibration had been attained (99% step completion). Upon reaching equilibration, the % RH within the apparatus was ramped to the next step and the equilibration procedure repeated. After completion of the sorption cycle, the sample was then dried using the same procedure. The weight change during the sorption/desorption cycles were then monitored, allowing for the hygroscopic nature of the sample to be determined.

[3] = male Beagle dog plasma, oral suspension, target 60 mg/kg

Chain of LynA tyrosine kinase (P07948 whole entry): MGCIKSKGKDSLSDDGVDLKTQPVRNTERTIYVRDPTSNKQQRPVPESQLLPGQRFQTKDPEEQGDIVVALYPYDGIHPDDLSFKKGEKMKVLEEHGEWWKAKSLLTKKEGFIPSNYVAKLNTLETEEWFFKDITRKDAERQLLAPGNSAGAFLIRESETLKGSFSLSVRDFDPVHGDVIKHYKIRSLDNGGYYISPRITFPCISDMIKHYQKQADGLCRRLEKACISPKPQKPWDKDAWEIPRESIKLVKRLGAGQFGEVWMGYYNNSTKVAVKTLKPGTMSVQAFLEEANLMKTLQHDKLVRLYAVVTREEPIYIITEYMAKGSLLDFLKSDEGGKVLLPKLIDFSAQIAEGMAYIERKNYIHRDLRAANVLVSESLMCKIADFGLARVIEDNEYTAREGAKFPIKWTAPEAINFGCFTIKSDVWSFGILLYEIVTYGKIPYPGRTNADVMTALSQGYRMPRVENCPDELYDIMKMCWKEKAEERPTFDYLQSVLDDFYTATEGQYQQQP
Chain of BLK tyrosine kinase (P51451 whole entry): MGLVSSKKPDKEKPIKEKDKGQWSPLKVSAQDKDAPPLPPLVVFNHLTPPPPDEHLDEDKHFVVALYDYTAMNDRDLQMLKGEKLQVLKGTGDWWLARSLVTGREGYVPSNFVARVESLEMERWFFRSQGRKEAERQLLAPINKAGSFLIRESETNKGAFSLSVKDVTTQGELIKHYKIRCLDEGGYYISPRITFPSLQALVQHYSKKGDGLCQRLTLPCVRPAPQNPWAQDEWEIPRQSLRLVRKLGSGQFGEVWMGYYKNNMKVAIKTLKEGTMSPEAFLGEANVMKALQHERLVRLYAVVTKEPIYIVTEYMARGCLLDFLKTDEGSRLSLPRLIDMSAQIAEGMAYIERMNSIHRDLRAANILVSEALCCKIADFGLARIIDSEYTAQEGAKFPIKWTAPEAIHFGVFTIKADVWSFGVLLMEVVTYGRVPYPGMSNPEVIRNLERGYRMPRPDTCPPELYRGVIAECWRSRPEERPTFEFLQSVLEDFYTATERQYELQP
Chain of LynB tyrosine kinase (P07948 1-491 isoform P07948-2): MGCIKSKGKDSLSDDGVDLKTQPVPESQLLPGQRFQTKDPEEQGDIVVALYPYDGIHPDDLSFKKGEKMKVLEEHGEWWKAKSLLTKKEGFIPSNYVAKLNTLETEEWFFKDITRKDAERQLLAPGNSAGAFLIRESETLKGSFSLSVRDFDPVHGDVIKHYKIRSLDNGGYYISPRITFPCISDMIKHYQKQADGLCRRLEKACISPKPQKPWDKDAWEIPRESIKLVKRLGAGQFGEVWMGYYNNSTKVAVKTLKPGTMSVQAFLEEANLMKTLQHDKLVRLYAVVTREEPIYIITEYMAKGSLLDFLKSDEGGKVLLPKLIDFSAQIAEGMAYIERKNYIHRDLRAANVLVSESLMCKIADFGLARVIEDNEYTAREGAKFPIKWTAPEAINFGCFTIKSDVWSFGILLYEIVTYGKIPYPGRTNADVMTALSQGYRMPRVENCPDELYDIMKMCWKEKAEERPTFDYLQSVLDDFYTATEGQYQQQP

extrapolated part of AUC(0-∞) ([1]; male Beagle dog, oral 60 mg/kg): no more than 6%
half-life ([1]; plasma, male Beagle dog, oral 60 mg/kg, terminal decline, read-out: estimated mean half-life): 3 to 4 h
effect on activity of BLK tyrosine kinase (BLK tyrosine kinase): capable of activating
effect on activity of LynB tyrosine kinase (LynB tyrosine kinase): no or substantially no effect
effect on activity of LynA tyrosine kinase (LynA tyrosine kinase): capable of activating
SMILES: C[C@H](O)COC[C@H](Cc1ccc(O)cc1)NC(=O)CCc1ccccc1 [NRD135S.E1, (S,S)-2-N(3-O-(propan-2-ol)-1-propyl-4-hydroxybenzene)-3-phenylpropylamide]

bioavailability (in words) ([1]; dog bioavailability tests): exceptionally high
LS geometric mean AUC(0-∞) ([1]; male Beagle dog plasma, oral suspension, target 60 mg/kg, corrected to a 60.0 mg dose): 20064 ng·h/mL
LS geometric mean Cmax [1, 3]: 11088 ng/mL
geometric mean ratio (polymorph 2/polymorph 1) of AUC(0-∞) ([1]; male Beagle dog, oral, dose-corrected, 90% CI 1.35, 1.71): 1.52
geometric mean ratio (polymorph 2/polymorph 1) of Cmax ([1]; male Beagle dog, oral, dose-corrected, 90% CI 1.84, 2.70): 2.22
hygroscopicity (GVS, in words) [2]: only slightly hygroscopic
overall weight loss by the end of the two adsorption/desorption cycles (GVS) ([2]; after two adsorption/desorption cycles): ~1%
change of polymorphic form on GVS cycling ([2]; listed as Form 2): no change of polymorphic form
hygroscopicity (GVS, in words) ([2]; listed as Form 2): only slightly hygroscopic
weight gain to 80% RH (GVS) [2]: 0.6%
weight gain to 80% RH (GVS) ([2]; listed as Form 2): 0.6%
SMILES: C[C@H](O)COC[C@H](Cc1ccc(O)cc1)NC(=O)CCc1ccccc1 [polymorph 2, (S,S)-2-N(3-O-(propan-2-ol)-1-propyl-4-hydroxybenzene)-3-phenylpropylamide]
adverse reactions to the oral administration ([1]; male Beagle dog): No adverse reactions

LS geometric mean Cmax [1, 3]: 4986 ng/mL
AUC(0-inf) ([1]; male, Beagle, dog, plasma, po, 60 mg/kg, male Beagle dog plasma, oral suspension, target 60 mg/kg, corrected to a 60.0 mg dose, read-out: LS geometric mean AUC(0-∞)): 13200 ng·h/mL
hygroscopicity (GVS, in words) [2]: hygroscopic
change of polymorphic form on GVS cycling [2]: hinted towards form change
weight increase in second adsorption cycle (GVS) ([2]; second adsorption cycle, RH of 40%): > 2%
weight increase to 70% RH (GVS) ([2]; to 70% RH): ~1.3%
weight gain to 80% RH (GVS) [2]: 5.6%
SMILES: C[C@H](O)COC[C@H](Cc1ccc(O)cc1)NC(=O)CCc1ccccc1 [polymorph 1, (S,S)-2-N(3-O-(propan-2-ol)-1-propyl-4-hydroxybenzene)-3-phenylpropylamide]
adverse reactions to the oral administration ([1]; male Beagle dog): No adverse reactions
